# Assay results taken from PMC10373478, “Exploration and Exploitation Approaches Based on Generative Machine Learning to Identify Potent Small Molecule Inhibitors of α-Synuclein Secondary Nucleation” (Journal of Chemical Theory and Computation, 2023).
# Target: T1, α-synuclein (αS) (Homo sapiens, UniProt P37840)
# T1 construct: gene SNCA
# Assay: seeded aggregation kinetics (ThT fluorescence) at […] compound
# Format: biochemical
structure (smiles),measurement,value
CN1C(C(=O)Nc2ccccn2)=C(O)c2sc(Cl)cc2S1(=O)=O [lornoxicam],seeded aggregation kinetics (ThT fluorescence) at 25 and 50 μM compound,"The potency of lornoxicam was mild in comparison to hits found previously, but it was nonetheless observable"
